EP1799816B1, “NOVEL LACCASE ENZYME AND USE THEREOF” (AB Enzymes Oy, priority 2004, dated 2006)
Values joined by “and” are separate entries in the source; they are usually repeats but may differ in a detail not shown here. Identical values can stand only once. Like-named read-outs stand apart in the source and are kept apart here.

Key:
[1] = system: Thielavia wild type laccase
[2] = system: recombinant Thielavia arenaria TaLcc1 laccase (rTaLcc1); format: biochemical
Description: Table 2. Inhibition of the Thielavia wild type laccase.
The inhibition effect of different compounds on the activity of the recombinant TaLcc1 laccase was determined as described in Example 2. Table 7. Inhibition of the recombinant Thielavia arenaria TaLcc1 laccase (rTaLcc1) activity by various compounds.

[3] = Sodium hypochlorite bleaching of different types of denim, Wascator, colour of face side of denim; conditions: 25 ml/l 10 % NaOCl, 15 min, 40°C, pH 11.5 - 11.9
Description: Different types of demin were treated with a TaLcc1 laccase product from Trichoderma strain RF5597 and DeniLite II Base from Novozymes and the results obtained were compared to hypochlorite bleaching. All together 27 pieces of different kinds of denim (whole jeans), which had been previously washed with cellulase after desizing to different abrasion levels or had been only desized with ECOSTONE® A200 (60°C, 10 min), were collected for the test (Table 15). The jeans were made of Indigo dyed denim, except the English jeans contained Indigo dyed denim with sulphur bottom. Jeans were cut in such a way that pieces from the same pair of jeans could be used for all tests.
The sodium hypochlorite bleaching was performed with Electrolux's Wascator FOM 71 CLS washer extractor using denim obtained from the same jeans as in laccase treatments under conditions described in Table 17. Sodium hydroxide was added before adding 25 ml/l of 10 % sodium hypochlorite solution (Klorite Forte, Farmos Oy) to keep the pH above 10.5 during the treatment. After draining the bleach liquor, there was one 2 minutes rinsing step with the liquor ratio of 1:20 before dechlorinating with sodium thiosulphate. After dechlorinating the denim samples were rinsed 3 times for 2 minutes with the liquor ratio of 1:20. The fabrics were dried in a tumbler. Table 17. The process parameters used in the sodium hypochlorite bleaching and dechlorinating.
The bleaching effect was evaluated by measuring the colour as reflectance values as in Example 7. […] Different looks were obtained depending on the type of the denim and cellulase treatment used. "Sulphur-bottom type" denim was the most difficult to bleach. Table 18. Colour measurements of the face side of denim treated with TaLcc1 laccase preparation (RF5597). L* indicates lightness, -b* is the blue direction, +b* is the yellow direction.

[4] = substrate: COc1cccc(OC)c1O; assay: Kinetic parameters (Km, kcat, kcat/Km) on laccase substrates; format: biochemical, Melanocarpus albomyces; conditions: other: substrate DMP, 25°C, buffer unclear, comparison enzyme
Description: (§1) On syringaldazin and DMP 40 mM MES buffer, pH 6 and 25 mM succinate bluffer, All activity assays were carried out at 25°C. Kinetic parameters were estimated by a nonlinear regression curve fit. The values were compared to those of Melanocarpus albomyces MaL, laccase.

[5] = substrate: COc1cc(C=NN=Cc2cc(OC)c(O)c(OC)c2)cc(OC)c1O; assay: as above; format: biochemical, Melanocarpus albomyces; conditions: other: substrate Syringaldazin, 25°C, buffer unclear, comparison enzyme
Description: as §1

[6] = sample B1, Basic Jeans, Ecostone P1250
[7] = sample E1, English jeans (sulphur bottom), desized only
[8] = sample E2, English jeans (sulphur bottom), Ecostone NP2000
[9] = sample E3, English jeans (sulphur bottom), Rocksoft NCE-EA
[10] = sample E4, English jeans (sulphur bottom), Rocksoft NCE-2X
[11] = sample E5, English jeans (sulphur bottom), Ecostone L900
[12] = sample E6, English jeans (sulphur bottom), Ecostone L900
[13] = sample E7, English jeans (sulphur bottom), Ecostone L900
[14] = sample L1, Lee Cooper jeans, desized only
[15] = sample L2, Lee Cooper jeans, Ecostone L
[16] = sample L3, Lee Cooper jeans, Biotouch C29
[17] = sample L4, Lee Cooper jeans, Ecostone L
[18] = sample L5, Lee Cooper jeans, Indiage Max L
[19] = sample L6, Lee Cooper jeans, Indiage Super L
[20] = sample L7, Lee Cooper jeans, Ecostone CXP500 Exper.
[21] = sample L8, Lee Cooper jeans, Ecostone CXP experimental
[22] = sample L9, Lee Cooper jeans, Ecostone N400
[23] = sample T1, Tincan jeans, desized only
[24] = sample T2, Tincan jeans, Ecostone N400
[25] = sample T3, Tincan jeans, Ecostone L300
[26] = sample T4, Tincan jeans, Denimax 991S
[27] = sample W1, Warric jeans, desized only
[28] = sample W2, Warric jeans, Ecostone P4500
[29] = sample W3, Warric jeans, Indiage Max G
[30] = sample W4, Warric jeans, Ecostone NP2000
[31] = sample W5, Warric jeans, Ecostone L900
[32] = sample W6, Warric jeans, Denabraide MBL 65 E

O=C(O)CN(CCN(CC(=O)O)CC(=O)O)CC(=O)O [EDTA]
Inhibition(%) wt TaLcc1 ([1]; inhibitor 10 mM, 2 mM ABTS, 25 mM succinate buffer pH 4.5): 0% | Inhibition (%) of laccase rTaLcc1 ([2]; inhibitor 10 mM, ABTS as substrate): 5%

[Cl-].[Na+] [NaCl]
Inhibition(%) wt TaLcc1 ([1]; pH 4.5): 35% and 42% | Inhibition (%) of laccase rTaLcc1 [2]: 0%

[N-]=[N+]=[N-].[Na+] [NaN3]
Inhibition (%) of laccase rTaLcc1 [2]: 95%

OCl [sodium hypochlorite]
After laccase Treatment L* [3, 6]: 40.62 | After laccase Treatment b* [3, 6]: -17.37 | Increase of L* [3, 6]: 12.27 | After laccase Treatment L* [3, 7]: 21.91 | After laccase Treatment b* [3, 7]: -15.03 | Increase of L* [3, 7]: 5.15 | After laccase Treatment L* [3, 8]: 33.30 | After laccase Treatment b* [3, 8]: -16.43 | Increase of L* [3, 8]: 7.36 | After laccase Treatment L* [3, 9]: 34.13 | After laccase Treatment b* [3, 9]: -16.73 | Increase of L* [3, 9]: 9.40 | After laccase Treatment L* [3, 10]: 35.83 | After laccase Treatment b* [3, 10]: -16.86 | Increase of L* [3, 10]: 9.28 | After laccase Treatment L* [3, 11]: 33.85 | After laccase Treatment b* [3, 11]: -16.48 | Increase of L* [3, 11]: 9.28 | After laccase Treatment L* [3, 12]: 30.61 | After laccase Treatment b* [3, 12]: -16.65 | Increase of L* [3, 12]: 8.41 | After laccase Treatment L* [3, 13]: 32.36 | After laccase Treatment b* [3, 13]: -16.75 | Increase of L* [3, 13]: 9.62 | After laccase Treatment L* [3, 14]: 31.23 | After laccase Treatment b* [3, 14]: -20.83 | Increase of L* [3, 14]: 10.69 | After laccase Treatment L* [3, 15]: 44.11 | After laccase Treatment b* [3, 15]: -18.60 | Increase of L* [3, 15]: 12.97 | After laccase Treatment L* [3, 16]: 39.71 | After laccase Treatment b* [3, 16]: -19.67 | Increase of L* [3, 16]: 11.26 | After laccase Treatment L* [3, 17]: 40.63 | After laccase Treatment b* [3, 17]: -19.25 | Increase of L* [3, 17]: 11.48 | After laccase Treatment L* [3, 18]: 39.47 | After laccase Treatment b* [3, 18]: -19.48 | Increase of L* [3, 18]: 11.47 | After laccase Treatment L* [3, 19]: 41.50 | After laccase Treatment b* [3, 19]: -18.68 | Increase of L* [3, 19]: 12.42 | After laccase Treatment L* [3, 20]: 37.91 | After laccase Treatment b* [3, 20]: -19.85 | Increase of L* [3, 20]: 11.15 | After laccase Treatment L* [3, 21]: 40.74 | After laccase Treatment b* [3, 21]: -19.12 | Increase of L* [3, 21]: 11.98 | After laccase Treatment L* [3, 22]: 40.82 | After laccase Treatment b* [3, 22]: -18.82 | Increase of L* [3, 22]: 11.91 | After laccase Treatment L* [3, 23]: 33.97 | After laccase Treatment b* [3, 23]: -17.95 | Increase of L* [3, 23]: 8.95 | After laccase Treatment L* [3, 24]: 34.38 | After laccase Treatment b* [3, 24]: -18.22 | Increase of L* [3, 24]: 6.73 | After laccase Treatment L* [3, 25]: 40.33 | After laccase Treatment b* [3, 25]: -18.30 | Increase of L* [3, 25]: 11.24 | After laccase Treatment L* [3, 26]: 37.66 | After laccase Treatment b* [3, 26]: -18.58 | Increase of L* [3, 26]: 10.10 | After laccase Treatment L* [3, 27]: 27.75 | After laccase Treatment b* [3, 27]: -18.76 | Increase of L* [3, 27]: 10.17 | After laccase Treatment L* [3, 28]: 39.35 | After laccase Treatment b* [3, 28]: -17.39 | Increase of L* [3, 28]: 13.76 | After laccase Treatment L* [3, 29]: 41.11 | After laccase Treatment b* [3, 29]: -16.79 | Increase of L* [3, 29]: 12.99 | After laccase Treatment L* [3, 30]: 38.07 | After laccase Treatment b* [3, 30]: -17.33 | Increase of L* [3, 30]: 12.29 | After laccase Treatment L* [3, 31]: 37.12 | After laccase Treatment b* [3, 31]: -18.03 | Increase of L* [3, 31]: 13.40 | After laccase Treatment L* [3, 32]: 36.65 | After laccase Treatment b* [3, 32]: -17.95 | Increase of L* [3, 32]: 12.90

B1: Melanocarpus albomyces laccase MaL (Melanocarpus albomyces) (protein)
chain: EPTCNTPSNRACWSDGFDINTDYEVSTPDTGVTQSYVFNLTEVDNWMGPDGVVKEKVMLINGNIMGPNIVANWGDTVEVTVINNLVTNGTSIHWHGIHQKDTNLHDGANGVTECPIPPKGGQRTYRWRARQYGTSWYHSHFSAQYGNGVVGTIQINGPASLPYDIDLGVFPITDYYYRAADDLVHFTQNNAPPFSDNVLINGTAVNPNTGEGQYANVTLTPGKRHRLRILNTSTENHFQVSLVNHTMTVIAADMVPVNAMTVDSLFLAVGQRYDVVIDASRAPDNYWFNVTFGGQAACGGSLNPHPAAIFHYAGAPGGLPTDEGTPPVDHQCLDTLDVRPVVPRSVPVNSFVKRPDNTLPVALDLTGTPLFVWKVNGSDINVDWGKPIIDYILTGNTSYPVSDNIVQVDAVDQWTYWLIENDPEGPFSLPHPMHLHGHDFLVLGRSPDVPAASQQRFVFDPAVDLARLNGDNPPRRDTTMLPAGGWLLLAFRTDNPGAWLFHCHIAWHVSGGLSVDFLERPADLRQRISQEDEDDFNRVCDEWRAYWPTNPYPKIDSGL
Km [4]: 5 µM | kcat [4]: 69.33 s⁻¹ | kcat/Km [4]: 1.35e+07 M⁻¹ s⁻¹ | Km [5]: 1.3 µM | kcat [5]: 78.5 s⁻¹ | kcat/Km [5]: 6e+07 M⁻¹ s⁻¹
